# Literature values, collected in US11648211B2, “Nanoencapsulated combination drug formulations” (priority 2019, dated 2023).
# Like-named read-outs stand apart in the source and are kept apart here.
# Test system: spontaneous breast cancer
structure (smiles),measurement,setting,value
"Cn1ncnc1[C@H]1c2n[nH]c(=O)c3cc(F)cc(c23)N[C@@H]1c1ccc(F)cc1 [TLZ, Talazoparib]",animals with alopecia,i.v.,25%
same,animals with alopecia,oral,25%
